Measurements from publication PMC8587151, “Dibenzofuran Derivatives Inspired from Cercosporamide as Dual Inhibitors of Pim and CLK1 Kinases” (Molecules, 2021).
Several values for one entry are separate records, joined by “and”; a condition that tells them apart may be missing. Equal entries are not always repeated. Where two headings read alike, the source gives them in different places.

Tests used:
[1] = molecular target: T1, HsPim-1 (Homo sapiens, UniProt P11309); experiment: Kinase assay, luminescent ADP-Glo, 10 µM ATP; format: biochemical; conditions: ADP-Glo, 10 µM ATP
T1 construct: made in house; host or cells: Escherichia coli BL21 DE3 pLysS
Procedure: (§1) The synthesized compounds were tested using a luminescence-based assay against a panel of nine kinases: Pim-1, Pim-2, CDK5/p25, CDK9/CyclinT, Haspin, CK1ε, and GSK3β (from human); DYRK1A (from Rattus norvegicus); and CLK1 (from Mus musculus).
(§2) Kinase enzymatic activities were assayed with 10 µM ATP in 384-well plates using the luminescent ADP-Glo^TM assay (Promega, Madison, WI, USA) according to the recommendations of the manufacturer (see [56] for details on this method). The transmitted signal was measured using the Envision (PerkinElmer, Waltham, MA, USA) microplate luminometer and expressed in relative light unit (RLU). In order to determine the half maximal inhibitory concentration (IC50), the assays were performed in duplicate in the absence or presence of increasing doses of the tested compounds. GraphPad Prism6 software (GraphPad Software, San Diego, CA, USA) was used to fit dose–response curves and to determine the IC50 values. Kinase activities are expressed in % of maximal activity, i.e., measured in the absence of inhibitor. Peptide substrates were obtained from Proteogenix (Schiltigheim, France).
(§3) For kinases expressed in bacteria, the Escherichia coli BL21 DE3 pLysS strain (Invitrogen, ThermoFisher Scientific, Waltham, MA, USA) was transformed with pGEX-2T-1 (Sigma-Aldrich, St. Louis, MO, USA) containing the coding region of the corresponding kinase. For kinases expressed in Sf9 insect cells, the coding region of the corresponding kinase was cloned in pFastBac^TM vector. Purification of the recombinant kinases was performed following the protocol “Bac-to-Bac® Baculovirus Expression System” provided by the manufacturer (Invitrogen, ThermoFisher Scientific, Waltham, MA, USA).
(§4) To validate the kinase assay, model inhibitors were used for each tested enzyme: Staurosporine from Streptomyces sp. (#S5921, purity ≥ 95%, Sigma-Aldrich) for HsCK1ε; Indirubin-30-oxime (#I0404, purity ≥ 98%, Sigma-Aldrich) for HsGSK-3β, HsPim-1 and 2, human cyclin-dependent kinases, RnDYRK1A and MmCLK1; CHR-6494 (#SML0648, purity ≥ 98%, Sigma-Aldrich) for Haspin.

[2] = test system: MV4-11 cells; experiment: MTT cell proliferation assay; format: cell-based, human; conditions: mean ± SEM; for IC50: Homo sapiens, MV4-11, 48 h
From the text: (§5) Various types of hematological malignancies were selected for in vitro testing: the human acute myeloid leukemia (AML) cell line MV4-11, and the human chronic myeloid leukemia (CML) cell lines KU812 and K562. Indeed, Pim kinases are overexpressed in a wide range of hematopoietic malignancies. Solid tumors were also included in the panel of tested cell lines: MCF-7 (human breast adenocarcinoma), HT-29 (human colon adenocarcinoma), and HeLa (human cervical cancer) cells. Cytotoxic effects were evaluated using an MTT assay, and living cells were also counted with the trypan blue dye exclusion method for MV4-11, KU812, and K562 cells.
(§6) MV4-11, K562, and KU812 cell lines were obtained from the Deutshe Sammlung von Mikroorganismens und Zellkulturen (DSMZ) and maintained according to the supplier’s recommendations. All cell lines were cultured in RPMI, with 10% fetal bovine serum, 1% glutamine, and 1% penicillin/ streptomycin at 37 °C and 5% CO2.
(§7) MV4-11, K562, and KU812 cells’ viability was studied using a MTT cell proliferation assay.
(§8) MV4-11, K562, and KU812 cells were incubated with 10 μL of MTT working solution (5 g/L of methylthiazolyldiphenyl-tetrazolium bromide from Sigma Aldrich, Lyon, France) for 4 h. Cells were then lysed overnight at 37 °C with 100 μL of 10% SDS and 0.003% HCl. Optical density (OD) at 570 nm was measured using a spectrophotometer CLARIOstar® (BMG Labtech, Offenburg, Germany). Living cells were also counted with the trypan blue dye exclusion method. […] Data were collected from at least three independent experiments and the values reported are means ± standard errors of the mean (SEM).

[3] = test system: KU812 cells; experiment: MTT cell proliferation assay; format: cell-based; conditions: Homo sapiens, 48 h, mean ± SEM
From the text: as §5, §6, §7, §8

[4] = test system: K562 cells; experiment: MTT cell proliferation assay; format: cell-based; conditions: Homo sapiens, 48 h, mean ± SEM
From the text: as §5, §6, §7, §8

[5] = test system: MCF-7 cells; experiment: MTT cytotoxicity assay; format: cell-based; conditions: Homo sapiens, MCF7, 72 h
From the text: as §5
(§9) The cancer cell lines MCF-7, HT-29, and HeLa were obtained from Cell Bank of Rio de Janeiro, Brazil, and were grown in RPMI-1640 medium and L929 cells were grown in Dulbecco’s Modified Eagle’s Medium (DMEM). Both media were supplemented with fetal bovine serum (FBS) (10% of the final concentration) followed by treatment with penicillin and streptomycin as antibiotics (1% of the final concentration). The crude was incubated in the presence of CO2 atmosphere (5%) for 24 h with the temperature monitored and maintained at 37 °C.
(§10) MCF-7, HT-29, HeLa, and L929 cells (3×10^5 cells/mL) were plated in 96-well plates and incubated in the presence of CO2 atmosphere (5%) for 24 h at 37 °C. […] Then, 25 μL of MTT (5 mg/mL in PBS) were added to each well and the plates were left for another 3 h in the incubator at 37 °C and at the end of this period, the supernatant was aspirated. To perform the reading, 100 μL of dimethylsulfoxide (DMSO) were added in each well for the dissolution of the formazan crystals. The amount of formazan was measured by reading the plate at 560 nm absorbance. […] Each sample was tested in triplicate in two independent experiments.

[6] = test system: HeLa cells; experiment: MTT cytotoxicity assay; format: cell-based; conditions: Homo sapiens, 72 h
From the text: as §5, §9, §10

[7] = test system: L929 cells; experiment: MTT assay, in vitro toxicity on normal cells; format: cell-based; conditions: 72 h, normal mouse fibroblasts
From the text: as §5, §9, §10

[8] = test system: Pim-2; conditions: Figure 1; cited from earlier work
[9] = test system: Pim-1; conditions: Figure 1; cited from earlier work
[10] = molecular target: T2, MmCLK1 (Mus musculus, UniProt P22518); experiment: Kinase assay, luminescent ADP-Glo, 10 µM ATP; format: biochemical; conditions: for IC50: ADP-Glo, 10 µM ATP, duplicate, read-out: Kinase Enzymatic IC50 CLK1
T2 construct: made in house; host or cells: Escherichia coli BL21 DE3 pLysS
Procedure: as §1, §2, §3, §4

[11] = molecular target: T3, HsCDK9/CyclinT (Homo sapiens, UniProt P50750); experiment: Kinase assay, luminescent ADP-Glo, 10 µM ATP; format: biochemical; conditions: duplicate, read-out: Kinase Enzymatic IC50 CDK9/CyclinT
T3 construct: made in house; host or cells: Sf9 insect cells (baculovirus, pFastBac)
Procedure: as §1, §2, §3, §4

[12] = molecular target: T4, HsPim-2 (Homo sapiens, UniProt Q9P1W9); experiment: Kinase assay, luminescent ADP-Glo, 10 µM ATP; format: biochemical; conditions: mean of n ≥ 3, read-out: IC50 Pim-2
T4 construct: made in house; host or cells: Escherichia coli BL21 DE3 pLysS
Procedure: as §1, §2, §3, §4

[13] = molecular target: T5, HsCDK5/p25 (Homo sapiens, UniProt Q00535); experiment: Kinase assay, luminescent ADP-Glo, 10 µM ATP; format: biochemical; conditions: duplicate, read-out: Kinase Enzymatic IC50 CDK5/p25
T5 construct: made in house; host or cells: Escherichia coli BL21 DE3 pLysS
Procedure: as §1, §2, §3, §4

[14] = molecular target: RnDYRK1A-kd (Rattus norvegicus, UniProt Q63470); experiment: Kinase assay, luminescent ADP-Glo, 10 µM ATP; format: biochemical; conditions: read-out: IC50 DYRK1A
Procedure: as §1, §2, §3, §4

[15] = Table 1, duplicate, read-out: Kinase Enzymatic IC50 Pim-1
[16] = Table 2, mean of n ≥ 3, read-out: IC50 Pim-1

T3 sequence (P50750 whole entry): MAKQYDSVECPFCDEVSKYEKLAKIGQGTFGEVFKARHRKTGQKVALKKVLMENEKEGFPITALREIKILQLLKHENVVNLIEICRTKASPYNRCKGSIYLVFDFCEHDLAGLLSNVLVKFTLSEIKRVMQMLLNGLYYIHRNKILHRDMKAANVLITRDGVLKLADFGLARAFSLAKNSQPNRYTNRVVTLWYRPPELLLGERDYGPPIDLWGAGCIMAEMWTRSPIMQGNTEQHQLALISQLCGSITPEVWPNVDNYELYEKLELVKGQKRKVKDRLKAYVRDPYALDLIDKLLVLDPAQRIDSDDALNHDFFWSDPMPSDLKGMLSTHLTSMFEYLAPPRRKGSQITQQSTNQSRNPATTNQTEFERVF
T3 sequence (O60563 whole entry partner): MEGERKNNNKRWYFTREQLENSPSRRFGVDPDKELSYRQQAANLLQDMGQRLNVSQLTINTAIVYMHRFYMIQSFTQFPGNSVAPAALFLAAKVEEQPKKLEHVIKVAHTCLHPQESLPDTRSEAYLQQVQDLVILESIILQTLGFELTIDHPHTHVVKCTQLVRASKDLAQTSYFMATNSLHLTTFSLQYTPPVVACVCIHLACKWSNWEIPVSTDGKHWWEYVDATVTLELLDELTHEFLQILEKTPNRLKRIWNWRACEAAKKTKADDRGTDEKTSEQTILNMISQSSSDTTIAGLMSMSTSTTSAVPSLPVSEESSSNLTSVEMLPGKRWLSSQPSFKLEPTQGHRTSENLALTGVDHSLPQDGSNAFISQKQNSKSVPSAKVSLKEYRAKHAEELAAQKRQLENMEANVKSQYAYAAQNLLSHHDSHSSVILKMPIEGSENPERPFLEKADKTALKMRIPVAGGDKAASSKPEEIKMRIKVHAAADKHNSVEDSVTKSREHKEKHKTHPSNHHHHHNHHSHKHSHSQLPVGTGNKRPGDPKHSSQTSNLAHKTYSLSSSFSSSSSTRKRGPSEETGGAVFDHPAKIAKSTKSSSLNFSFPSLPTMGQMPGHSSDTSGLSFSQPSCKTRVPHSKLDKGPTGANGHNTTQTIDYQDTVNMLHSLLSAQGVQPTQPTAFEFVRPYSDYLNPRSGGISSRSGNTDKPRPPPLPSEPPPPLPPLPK
T4 sequence (Q9P1W9 whole entry): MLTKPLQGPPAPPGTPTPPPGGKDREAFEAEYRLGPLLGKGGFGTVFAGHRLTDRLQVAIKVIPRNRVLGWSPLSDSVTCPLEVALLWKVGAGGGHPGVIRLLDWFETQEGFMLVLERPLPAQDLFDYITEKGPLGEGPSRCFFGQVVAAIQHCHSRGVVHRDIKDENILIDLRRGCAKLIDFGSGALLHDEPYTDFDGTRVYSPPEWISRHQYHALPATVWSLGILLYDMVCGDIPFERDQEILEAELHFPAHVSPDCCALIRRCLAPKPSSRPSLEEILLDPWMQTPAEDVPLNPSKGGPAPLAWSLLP
T2 sequence (P22518 whole entry): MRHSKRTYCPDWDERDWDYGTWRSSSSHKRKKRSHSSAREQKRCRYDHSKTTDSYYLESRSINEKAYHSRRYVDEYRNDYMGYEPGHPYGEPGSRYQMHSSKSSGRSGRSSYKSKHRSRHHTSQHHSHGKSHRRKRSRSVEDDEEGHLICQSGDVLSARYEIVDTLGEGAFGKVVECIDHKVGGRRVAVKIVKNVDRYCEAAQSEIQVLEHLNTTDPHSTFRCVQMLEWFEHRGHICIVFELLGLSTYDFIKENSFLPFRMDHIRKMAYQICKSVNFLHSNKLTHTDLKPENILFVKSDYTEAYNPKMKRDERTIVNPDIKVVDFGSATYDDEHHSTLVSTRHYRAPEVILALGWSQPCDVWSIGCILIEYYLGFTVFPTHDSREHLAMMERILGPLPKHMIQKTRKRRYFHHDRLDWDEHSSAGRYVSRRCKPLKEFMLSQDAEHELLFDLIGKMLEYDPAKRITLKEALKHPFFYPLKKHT
T1 sequence (P11309 whole entry): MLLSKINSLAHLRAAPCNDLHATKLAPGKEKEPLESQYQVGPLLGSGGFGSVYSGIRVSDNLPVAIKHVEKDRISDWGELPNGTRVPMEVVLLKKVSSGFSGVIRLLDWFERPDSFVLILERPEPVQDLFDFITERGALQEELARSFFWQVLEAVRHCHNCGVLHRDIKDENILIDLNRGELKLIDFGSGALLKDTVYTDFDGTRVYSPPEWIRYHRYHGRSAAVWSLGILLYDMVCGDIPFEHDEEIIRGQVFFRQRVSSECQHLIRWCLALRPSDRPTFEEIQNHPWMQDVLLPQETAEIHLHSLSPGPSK
T5 sequence (Q00535 whole entry): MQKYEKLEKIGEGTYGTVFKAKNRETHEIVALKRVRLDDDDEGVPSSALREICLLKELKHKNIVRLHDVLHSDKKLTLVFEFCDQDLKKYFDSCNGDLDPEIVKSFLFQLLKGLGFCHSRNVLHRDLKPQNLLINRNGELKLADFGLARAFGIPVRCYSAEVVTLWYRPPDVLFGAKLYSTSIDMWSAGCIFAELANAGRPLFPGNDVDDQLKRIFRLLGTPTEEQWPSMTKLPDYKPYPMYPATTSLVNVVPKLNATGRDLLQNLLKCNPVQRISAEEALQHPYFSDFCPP
T5 sequence (Q15078 99-307 partner limits assumed): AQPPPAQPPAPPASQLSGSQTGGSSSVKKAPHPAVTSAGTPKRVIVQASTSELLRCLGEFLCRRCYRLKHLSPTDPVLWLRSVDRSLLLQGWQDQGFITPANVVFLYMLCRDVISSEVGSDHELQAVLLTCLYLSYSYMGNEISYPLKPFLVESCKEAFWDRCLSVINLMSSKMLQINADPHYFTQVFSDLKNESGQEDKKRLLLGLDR

Row | Structure (SMILES) | IC50 [1, 15] | melting point | IC50 [2] | IC50 [3] | IC50 [4] | IC50 [5] | IC50 [6] | IC50 [1, 16] | IC50 [7] | also measured
1 | COc1cc(OC)c2c(oc3c(N)cccc32)c1C(N)=O [Compound 18, 6-Amino-1,3-dimethoxydibenzo[b,d]furan-4-carboxamide] | > 10 µM | 293 to 294 °C | – | – | – | – | – | – | – | –
2 | NC(=O)c1c(O)cc(O)c2c1oc1c([N+](=O)[O-])cccc12 [Compound 15, 1,3-Dihydroxy-6-nitrodibenzo[b,d]furan-4-carboxamide] | 0.18 µM | > 300 °C | 30.7 ± 1.1 µM | 78.4 ± 2.1 µM | > 100 µM | > 100 µM | 24.7 ± 6.7 µM | 0.18 µM | 49.2 ± 1 µM | –
3 | COc1ccc2c(c1)oc1c(C(N)=O)c(OC)cc(OC)c12 [Compound 39, 1,3,7-Trimethoxydibenzo[b,d]furan-4-carboxamide] | > 10 µM | 332 to 333 °C | – | – | – | – | – | – | – | –
4 | CC(=O)C1=C(O)C=C2Oc3c(C(C)=O)c(O)c(C)c(O)c3[C@@]2(C)C1=O [(+)-Usnic acid] | – | – | – | – | – | – | – | – | – | IC50 [8]: 0.58 µM; IC50 [9]: 0.21 µM
5 | COc1cc(OC)c2c(oc3c([N+](=O)[O-])cccc32)c1C(N)=O [Compound 14, 1,3-Dimethoxy-6-nitrodibenzo[b,d]furan-4-carboxamide] | 3.21 µM | 298 to 299 °C | – | – | – | – | – | – | – | –
6 | NC(=O)c1c(O)cc(O)c2c1oc1cc(O)ccc12 [Compound 44, 1,3,7-Trihydroxydibenzo[b,d]furan-4-carboxamide] | 0.06 µM | – | 2.6 ± 0.4 µM | 42.1 ± 1.3 µM | 75.7 ± 11.8 µM | 52.5 ± 1.2 µM | 10.2 ± 1.2 µM | 0.06 µM | 28.4 ± 1.1 µM | IC50 [10]: 0.026 µM; IC50 [11]: > 10 µM; IC50 [12]: 0.035 µM; IC50 [13]: > 10 µM
7 | NC(=O)c1c(O)cc(O)c2c1oc1ccccc12 [Compound 17, 1,3-Dihydroxydibenzo[b,d]furan-4-carboxamide] | 0.23 µM | 219 to 220 °C | 14.3 ± 1.1 µM | > 100 µM | > 100 µM | > 100 µM | 9.5 ± 4.1 µM | 0.23 µM | > 100 µM | IC50 [10]: 0.26 µM
8 | COc1cc(OC)c2c(oc3ccc(C(C)=O)cc32)c1C(N)=O [Compound 40, 8-Acetyl-1,3-dimethoxydibenzo[b,d]furan-4-carboxamide] | > 10 µM | 237 to 238 °C | – | – | – | – | – | – | – | –
9 | NC(=O)c1c(O)cc(O)c2c1oc1c(N)cccc12 [Compound 16, 6-Amino-1,3-dihydroxydibenzo[b,d]furan-4-carboxamide] | 0.13 µM | – | 10.1 ± 0.8 µM | > 100 µM | > 100 µM | > 100 µM | 14.6 ± 7.2 µM | 0.13 µM | > 100 µM | IC50 [10]: 0.45 µM; IC50 [11]: > 10 µM; IC50 [12]: 0.085 µM; IC50 [13]: > 10 µM
10 | COc1cc(OC)c2c(oc3ccc(C(F)(F)F)cc32)c1C(N)=O [Compound 42, 1,3-Dimethoxy-8-(trifluoromethyl)dibenzo[b,d]furan-4-carboxamide] | > 10 µM | 250 to 251 °C | – | – | – | – | – | – | – | –
11 | COc1cc(OC)c2c(oc3ccccc32)c1C(N)=O [Compound 19, 1,3-Dimethoxydibenzo[b,d]furan-4-carboxamide] | > 10 µM | 296 to 297 °C | – | – | – | – | – | – | – | –
12 | COc1cc(OC)c2c(oc3ccc(F)cc32)c1C(N)=O [Compound 41, 8-Fluoro-1,3-dimethoxydibenzo[b,d]furan-4-carboxamide] | > 10 µM | 230 to 231 °C | – | – | – | – | – | – | – | IC50 [14]: 1.33 µM
13 | COc1cc2oc3c(C(N)=O)c(OC)cc(OC)c3c2cc1C(C)=O [Compound 38, 8-Acetyl-1,3,7-trimethoxydibenzo[b,d]furan-4-carboxamide] | > 10 µM | – | – | – | – | – | – | – | – | –
14 | CN1CCC(CNc2ccc3ncc(-c4cccc(OC(F)(F)F)c4)n3n2)CC1 [SGI-1776, reference compound] | – | – | 0.03 ± 0.003 µM | 3.5 ± 0.6 µM | 3.7 ± 1.5 µM | – | – | – | – | –
15 | CC(=O)c1cc2c(cc1O)oc1c(C(N)=O)c(O)cc(O)c12 [Compound 43, 8-Acetyl-1,3,7-trihydroxydibenzo[b,d]furan-4-carboxamide] | 0.82 µM | 335 to 336 °C | 52.2 ± 1.7 µM | > 100 µM | > 100 µM | > 100 µM | 57.1 ± 7.6 µM | 0.82 µM | > 100 µM | IC50 [12]: 0.14 µM
16 | NC(=O)c1c(O)cc(O)c2c1oc1ccc(C(F)(F)F)cc12 [Compound 47, 1,3-Dihydroxy-8-(trifluoromethyl)dibenzo[b,d]furan-4-carboxamide] | > 1 µM and 2.35 µM | 347 to 348 °C | > 100 µM | > 100 µM | > 100 µM | – | – | 2.35 µM | – | IC50 MV4-11 ([2]; 48 h): inactive
17 | CC(=O)c1ccc2oc3c(C(N)=O)c(O)cc(O)c3c2c1 [Compound 45, 8-Acetyl-1,3-dihydroxydibenzo[b,d]furan-4-carboxamide] | 0.28 µM | – | 8.8 ± 0.9 µM | 69.4 ± 12.9 µM | > 100 µM | > 100 µM | 59.6 ± 7.6 µM | 0.28 µM | > 100 µM | IC50 [10]: 0.14 µM; fold less active than 44 against CLK1 ([10]; ratio of IC50 values): 5 fold; IC50 [11]: > 10 µM; IC50 [12]: 0.12 µM; IC50 [13]: > 10 µM
